According to PubChem BioAssay (NCI):
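Cells were grown in 96-well plates and exposed to each compound for 48 hours at five concentrations; endpoints were interpolated linearly between bracketing concentrations, or set to the highest concentration if not reached. GI50 = concentration required for 50% inhibition of growth. Definition used: TGI = concentration required for complete inhibition of growth.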

Columns and labels:
Assay in all cases: NCI-60 cell line screen, 48 h
[1] = system: BT-549 breast
[2] = system: CCRF-CEM leukemia
[3] = system: NCI-H226 lung
[4] = system: HCT-15 colon
[5] = system: SK-MEL-28 melanoma
[6] = system: SR leukemia
[7] = system: A549 NSCLC
[8] = system: NCI-H522 lung
[9] = system: DU-145 prostate
[10] = system: KM12 colon
[11] = system: UACC-62 melanoma
[12] = system: MDA-MB-231 breast
[13] = system: MDA-MB-435
[14] = system: HCT-116 colon
[15] = system: HS 578T breast
[16] = system: SF-539 CNS
[17] = system: SNB-75 CNS
[18] = system: M14 melanoma
[19] = system: NCI-H460 lung
[20] = system: LOX IMVI melanoma
[21] = system: UO-31 renal
[22] = system: MOLT-4 leukemia
[23] = system: NCI/ADR-RES ovarian
[24] = system: SF-295 CNS
[25] = system: COLO 205 colon
[26] = system: EKVX NSCLC
[27] = system: HOP-62 NSCLC
[28] = system: A498 renal
[29] = system: CAKI-1 renal
[30] = system: HOP-92 NSCLC
[31] = system: MCF7 breast
[32] = system: SK-MEL-2 melanoma
[33] = system: T-47D breast
[34] = system: SW-620 colon
[35] = system: OVCAR-4 ovarian
[36] = system: SN12C renal
[37] = system: OVCAR-8 ovarian
[38] = system: PC-3 prostate
[39] = system: OVCAR-3 ovarian
[40] = system: RPMI-8226 leukemia
[41] = system: HCC-2998 colon
[42] = system: 786-0 renal
[43] = system: HL-60(TB) leukemia
[44] = system: SF-268 CNS
[45] = system: SK-OV-3 ovarian
[46] = system: IGROV1 ovarian
[47] = system: HT29 colon
[48] = system: SK-MEL-5 melanoma
[49] = system: ACHN renal
[50] = system: OVCAR-5 ovarian
[51] = system: RXF 393 renal
[52] = system: TK-10 renal
[53] = system: UACC-257 melanoma
[54] = system: SNB-19 CNS
[55] = system: K-562 leukemia
[56] = system: MALME-3M melanoma
[57] = system: U251 CNS
[58] = system: NCI-H23 lung

COC(=O)N1c2ccc3c(nc(Cc4ccccc4)n3[C@H]3CCC[C@H](C(=O)O)C3)c2CC[C@@H]1C
GI50 [1]: 48500 nM
TGI [1]: > 100000 nM
GI50 [2]: 6550 nM
TGI [2]: > 100000 nM
GI50 [3]: 14100 nM
TGI [3]: > 100000 nM
GI50 [4]: 16200 nM
TGI [4]: > 100000 nM
GI50 [5]: 13200 nM
TGI [5]: > 100000 nM
GI50 [6]: 13800 nM
TGI [6]: > 100000 nM
GI50 [7]: 27600 nM
TGI [7]: > 100000 nM
GI50 [8]: 11300 nM
TGI [8]: > 100000 nM
GI50 [9]: 93600 nM
TGI [9]: > 100000 nM
GI50 [10]: 16400 nM
TGI [10]: > 100000 nM
GI50 [11]: 2080 nM
TGI [11]: > 100000 nM
GI50 [12]: 15800 nM
TGI [12]: > 100000 nM
GI50 [13]: 8590 nM
TGI [13]: > 100000 nM
GI50 [14]: 17600 nM
TGI [14]: > 100000 nM
GI50 [15]: 3250 nM
TGI [15]: > 100000 nM
GI50 [16]: 15700 nM
TGI [16]: > 100000 nM
GI50 [17]: 431 nM
TGI [17]: > 100000 nM
GI50 [18]: 5860 nM
TGI [18]: > 100000 nM
GI50 [19]: 23400 nM
TGI [19]: > 100000 nM
GI50 [20]: 1030 nM
TGI [20]: 30200 nM
GI50 [21]: 2870 nM
TGI [21]: > 100000 nM
GI50 [22]: 14300 nM
TGI [22]: > 100000 nM
GI50 [23]: 65200 nM
TGI [23]: > 100000 nM
GI50 [24]: 11700 nM
TGI [24]: > 100000 nM
GI50 [25]: 4950 nM
TGI [25]: > 100000 nM
GI50 [26]: 17900 nM
TGI [26]: > 100000 nM
GI50 [27]: 11300 nM
TGI [27]: > 100000 nM
GI50 [28]: 12400 nM
TGI [28]: 52700 nM
GI50 [29]: 1810 nM
TGI [29]: > 100000 nM
GI50 [30]: 1620 nM
TGI [30]: 11800 nM
GI50 [31]: 115 nM
TGI [31]: > 100000 nM
GI50 [32]: 34300 nM
TGI [32]: > 100000 nM
GI50 [33]: 3170 nM
TGI [33]: > 100000 nM
GI50 [34]: 46400 nM
TGI [34]: > 100000 nM
GI50 [35]: 6840 nM
TGI [35]: > 100000 nM
GI50 [36]: 17300 nM
TGI [36]: > 100000 nM
GI50 [37]: 28200 nM
TGI [37]: > 100000 nM
GI50 [38]: 5680 nM
TGI [38]: > 100000 nM
GI50 [39]: 13300 nM
TGI [39]: > 100000 nM
GI50 [40]: 3840 nM
TGI [40]: 80900 nM
GI50 [41]: 8360 nM
TGI [41]: 27100 nM
GI50 [42]: 5670 nM
TGI [42]: > 100000 nM
GI50 [43]: 3180 nM
TGI [43]: > 100000 nM
GI50 [44]: 27700 nM
TGI [44]: > 100000 nM
GI50 [45]: 16900 nM
TGI [45]: > 100000 nM
GI50 [46]: 20800 nM
TGI [46]: > 100000 nM
GI50 [47]: 5440 nM
TGI [47]: > 100000 nM
GI50 [48]: 10200 nM
TGI [48]: > 100000 nM
GI50 [49]: 17200 nM
TGI [49]: > 100000 nM
GI50 [50]: 30900 nM
TGI [50]: > 100000 nM
GI50 [51]: 12200 nM
TGI [51]: 91100 nM
GI50 [52]: 5700 nM
TGI [52]: > 100000 nM
GI50 [53]: 14600 nM
TGI [53]: > 100000 nM
GI50 [54]: 12600 nM
TGI [54]: > 100000 nM
GI50 [55]: 5030 nM
TGI [55]: > 100000 nM
GI50 [56]: 6130 nM
TGI [56]: > 100000 nM
GI50 [57]: 17100 nM
TGI [57]: > 100000 nM

CCCCCC/C=C\CCCCCCCCCc1cc(O)cc(OC)c1O
GI50 [1]: 375 nM
TGI [1]: 1450 nM
GI50 [2]: 219 nM
TGI [2]: 1290 nM
GI50 [3]: 370 nM
TGI [3]: 1490 nM
GI50 [4]: 285 nM
TGI [4]: 1320 nM
GI50 [5]: 653 nM
TGI [5]: 2340 nM
GI50 [6]: 344 nM
TGI [6]: 3260 nM
GI50 [7]: 406 nM
TGI [7]: 14600 nM
GI50 [8]: 321 nM
TGI [8]: 1220 nM
GI50 [9]: 575 nM
TGI [9]: 15200 nM
GI50 [10]: 388 nM
TGI [10]: 2300 nM
GI50 [11]: 396 nM
TGI [11]: 1950 nM
GI50 [12]: 308 nM
TGI [12]: 978 nM
GI50 [13]: 363 nM
TGI [13]: 1960 nM
GI50 [14]: 330 nM
TGI [14]: 1250 nM
GI50 [15]: 599 nM
TGI [15]: 5180 nM
GI50 [16]: 377 nM
TGI [16]: 1510 nM
GI50 [17]: 317 nM
TGI [17]: 1440 nM
GI50 [18]: 403 nM
TGI [18]: 3650 nM
GI50 [19]: 323 nM
TGI [19]: 10100 nM
GI50 [20]: 339 nM
TGI [20]: 1210 nM
GI50 [21]: 321 nM
TGI [21]: 1220 nM
GI50 [22]: 333 nM
TGI [22]: 1860 nM
GI50 [23]: 311 nM
TGI [23]: 1270 nM
GI50 [24]: 304 nM
TGI [24]: 1370 nM
GI50 [26]: 335 nM
TGI [26]: 1740 nM
GI50 [28]: 330 nM
TGI [28]: 2070 nM
GI50 [29]: 497 nM
TGI [29]: 1820 nM
GI50 [30]: 234 nM
TGI [30]: 767 nM
GI50 [31]: 292 nM
TGI [31]: 2490 nM
GI50 [32]: 494 nM
TGI [32]: 2410 nM
GI50 [33]: 349 nM
TGI [33]: 1930 nM
GI50 [34]: 371 nM
TGI [34]: 1810 nM
GI50 [35]: 389 nM
TGI [35]: 1690 nM
GI50 [36]: 310 nM
TGI [36]: 1500 nM
GI50 [37]: 307 nM
TGI [37]: 6500 nM
GI50 [38]: 308 nM
TGI [38]: 1540 nM
GI50 [39]: 401 nM
TGI [39]: 1430 nM
GI50 [40]: 219 nM
GI50 [41]: 633 nM
TGI [41]: 4340 nM
GI50 [58]: 348 nM
TGI [58]: 1290 nM
GI50 [42]: 316 nM
TGI [42]: 1570 nM
GI50 [43]: 272 nM
TGI [43]: 717 nM
GI50 [44]: 441 nM
TGI [44]: 1690 nM
GI50 [45]: 402 nM
TGI [45]: 11600 nM
GI50 [46]: 433 nM
TGI [46]: 1640 nM
GI50 [47]: 353 nM
TGI [47]: 6930 nM
GI50 [48]: 329 nM
TGI [48]: 1180 nM
GI50 [49]: 318 nM
TGI [49]: 1210 nM
GI50 [50]: 402 nM
TGI [50]: 2410 nM
GI50 [51]: 320 nM
TGI [51]: 1380 nM
GI50 [52]: 664 nM
TGI [52]: 2650 nM
GI50 [53]: 474 nM
TGI [53]: 2920 nM
GI50 [54]: 347 nM
TGI [54]: 10300 nM
GI50 [55]: 298 nM
TGI [55]: 2080 nM
GI50 [56]: 444 nM
TGI [56]: 2140 nM
